Test results from US20260285850A1, “SUBSTITUTED OXAZOLIDINONES AND IMIDAZOLINONES AS HERBICIDES” (FMC CORPORATION, priority 2023, published 2026).

Key:
Assay type in all cases: in vivo
[1] = system: wheat (Triticum aestivum); assay: Test A preemergence soil spray, visual injury rating 0-100; conditions: 10 days
Outline: (§1)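 Rating: visual, day 10, untreated plants as reference, 0 no effect to 100 full control. Plants were in loam-sand and were treated either preemergence via directed soil spray or postemergence at the one- to two-leaf stage.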

[2] = system: soybean (Glycine max); assay: as above; conditions: 10 days
Outline: as §1

[3] = system: oat, wild (wild oat, Avena fatua); assay: as above; conditions: 10 days
Outline: as §1

[4] = system: ryegrass, Italian (italian ryegrass, Lolium multiflorum); assay: as above; conditions: 10 days
Outline: as §1

[5] = system: corn (Zea mays); assay: as above; conditions: 10 days
Outline: as §1

[6] = system: palmer (palmer amaranth, palmer pigweed, Amaranthus palmeri); assay: as above; conditions: 10 days
Outline: as §1

[7] = system: blackgrass (Alopecurus myosuroides); assay: as above; conditions: 10 days
Outline: as §1

[8] = system: barnyardgrass (Echinochloa crus-galli); assay: as above; conditions: 10 days
Outline: as §1

[9] = system: green foxtail (Setaria viridis); assay: as above; conditions: 10 days
Outline: as §1

[10] = system: kochia (Bassia scoparia); assay: as above; conditions: 10 days
Outline: as §1

[11] = system: ragweed (common ragweed, Ambrosia artemisiifolia); assay: as above; conditions: 10 days
Outline: as §1

[12] = system: wheat (Triticum aestivum); assay: Test A postemergence application, visual injury rating 0-100
Outline: as §1

[13] = system: soybean (Glycine max); assay: as above
Outline: as §1

[14] = system: oat, wild (wild oat, Avena fatua); assay: as above
Outline: as §1

[15] = system: ryegrass, Italian (italian ryegrass, Lolium multiflorum); assay: as above
Outline: as §1

[16] = system: corn (Zea mays); assay: as above
Outline: as §1

[17] = system: galium (catchweed bedstraw, Galium aparine); assay: as above
Outline: as §1

[18] = system: palmer (palmer amaranth, palmer pigweed, Amaranthus palmeri); assay: as above
Outline: as §1

[19] = system: blackgrass (Alopecurus myosuroides); assay: as above
Outline: as §1

[20] = system: barnyardgrass (Echinochloa crus-galli); assay: as above
Outline: as §1

[21] = system: green foxtail (Setaria viridis); assay: as above
Outline: as §1

[22] = system: kochia (Bassia scoparia); assay: as above
Outline: as §1

[23] = system: ragweed (common ragweed, Ambrosia artemisiifolia); assay: as above
Outline: as §1

[24] = system: horseweed (Erigeron canadensis); assay: as above
Outline: as §1

[25] = system: ducksalad (Heteranthera limosa); assay: Test B flooded paddy test, visual plant response rating 0-100; conditions: 250 g ai/ha, Flood, applied to paddy water, evaluated after 13 days
Outline: (§2)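 Greenhouse, 13 d. Seedlings at 2-leaf stage, pots flooded to 3 cm, compound delivered into floodwater, water level held constant. Evaluated visually relative to controls.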

[26] = system: rice (Oryza sativa); assay: as above; conditions: 250 g ai/ha, Flood, applied to paddy water, evaluated after 13 days
Outline: as §2

[27] = system: barnyardgrass (Echinochloa crusgalli); assay: as above; conditions: 250 g ai/ha, Flood, applied to paddy water, evaluated after 13 days
Outline: as §2

[28] = system: sedge, umbrella (small-flower umbrella sedge, Cyperus difformis); assay: as above; conditions: 250 g ai/ha, Flood, applied to paddy water, evaluated after 13 days
Outline: as §2

[29] = 62 g ai/ha, 0 = no effect, 100 = complete control
[30] = 62 g ai/ha, postemergence, 10 days, 0 = no effect, 100 = complete control
[31] = Postemergence, 16 g ai/ha, greenhouse 10 days, 0 no effect, 100 complete control

CC(C)OC(=O)C1=CCC(NC(=O)C2(C)CN(c3cc(F)cc(F)c3)C(=O)O2)C1 (stereo not shown) [Compound 99]
20: Oat, Wild plant response rating ([3]; 16 g ai/ha, 0 to 100 scale) | Soybean plant response rating (0-100) [13, 30] | Galium plant response rating (0-100) [17, 30] | Galium plant response rating (0 to 100 scale) [17, 31]
40: Foxtail, Green plant response rating (0-100) [9, 29]
10: Wheat plant response rating (0-100) [12, 30]
0: Wheat plant response rating ([1]; 16 g ai/ha, 0 to 100 scale) | Wheat plant response rating (0-100) [1, 29] | Soybean plant response rating ([2]; 16 g ai/ha, 0 to 100 scale) | Soybean plant response rating (0-100) [2, 29] | Ryegrass, Italian plant response rating ([4]; 16 g ai/ha, 0 to 100 scale) | Ryegrass, Italian plant response rating (0-100) [4, 29] | Corn plant response rating ([5]; 16 g ai/ha, 0 to 100 scale) | Corn plant response rating (0-100) [5, 29] | Pigweed, Palmer plant response rating ([6]; 16 g ai/ha, 0 to 100 scale) | Pigweed, Palmer plant response rating (0-100) [6, 29] | Blackgrass plant response rating ([7]; 16 g ai/ha, 0 to 100 scale) | Blackgrass plant response rating (0-100) [7, 29] | Barnyardgrass plant response rating ([8]; 16 g ai/ha, 0 to 100 scale) | Barnyardgrass plant response rating (0-100) [8, 29] | Foxtail, Green plant response rating ([9]; 16 g ai/ha, 0 to 100 scale) | Kochia plant response rating ([10]; 16 g ai/ha, 0 to 100 scale) | Kochia plant response rating (0-100) [10, 29] | Ragweed plant response rating ([11]; 16 g ai/ha, 0 to 100 scale) | Ragweed plant response rating (0-100) [11, 29] | Wheat plant response rating (0 to 100 scale) [12, 31] | Soybean plant response rating (0 to 100 scale) [13, 31] | Oat, Wild plant response rating (0-100) [14, 30] | Oat, Wild plant response rating (0 to 100 scale) [14, 31] | Ryegrass, Italian plant response rating (0-100) [15, 30] | Ryegrass, Italian plant response rating (0 to 100 scale) [15, 31] | Corn plant response rating (0-100) [16, 30] | Corn plant response rating (0 to 100 scale) [16, 31] | Pigweed, Palmer plant response rating (0-100) [18, 30] | Pigweed, Palmer plant response rating (0 to 100 scale) [18, 31] | Blackgrass plant response rating (0-100) [19, 30] | Blackgrass plant response rating (0 to 100 scale) [19, 31] | Barnyardgrass plant response rating (0-100) [20, 30] | Barnyardgrass plant response rating (0 to 100 scale) [20, 31] | Foxtail, Green plant response rating (0-100) [21, 30] | Foxtail, Green plant response rating (0 to 100 scale) [21, 31] | Kochia plant response rating (0-100) [22, 30] | Kochia plant response rating (0 to 100 scale) [22, 31] | Ragweed plant response rating (0-100) [23, 30] | Ragweed plant response rating (0 to 100 scale) [23, 31] | Horseweed plant response rating (0-100) [24, 30] | Horseweed plant response rating (0 to 100 scale) [24, 31] | Plant response rating, Ducksalad (0 to 100 scale, 0 is no effect and 100 is complete control) [25] | Plant response rating, Rice (0 to 100 scale, 0 is no effect and 100 is complete control) [26] | Plant response rating, Barnyardgrass (0 to 100 scale, 0 is no effect and 100 is complete control) [27] | Plant response rating, Sedge, Umbrella (0 to 100 scale, 0 is no effect and 100 is complete control) [28]
50: Oat, Wild plant response rating (0-100) [3, 29]
